ChEMBL document CHEMBL1121458, “Benzenesulfenamides as antihypertensive agents. Substituted piperidine and 1-arylpiperazine derivatives” (1980)

Experiments:
Format in all cases: functional
Rattus norvegicus [1] = test: Antihypertensive activity was measured for systolic pressure using spontaneous hypertensive rats (SHR) at 50 mg/kg after oral administration
Rattus norvegicus [2] = test: Antihypertensive activity was measured for systolic pressure using spontaneous hypertensive rats (SHR) at 25 mg/kg after oral administration
Rattus norvegicus [3] = test: Antihypertensive activity was measured for systolic pressure using spontaneous hypertensive rats (SHR) at 10 mg/kg after oral administration
Rattus norvegicus [4] = test: Antihypertensive activity was measured for systolic pressure using spontaneous hypertensive rats (SHR) at 50 mg/kg

Row | SMILES | Change in systolic pressure (Rattus norvegicus [1]) [mmHg] | Change in systolic pressure (Rattus norvegicus [2]) [mmHg] | Change in systolic pressure (Rattus norvegicus [3]) [mmHg] | Change in systolic pressure (Rattus norvegicus [4]) [mmHg]
1 | Clc1ccccc1N1CCN(Sc2ccccc2)CC1 | 28 |  |  | 
2 | Cc1ccccc1N1CCN(Sc2ccccc2)CC1 | 8 |  |  | 
3 | Clc1ccc(N2CCN(Sc3ccccc3)CC2)cc1 | 44 | 23.5 |  | 
4 | Brc1ccc(OC2CCN(Sc3ccccc3)CC2)cc1 | -15 |  |  | 
5 | O=C(c1ccccc1)C1CCN(Sc2ccccc2)CC1 |  | -14 |  | 
6 | COc1ccccc1N1CCN(Sc2ccccc2)CC1 | 71 | 27 |  | 
7 | c1ccc(SN2CCC3(CC2)OC(c2ccccc2)c2ccccc23)cc1 (stereo not drawn) | -66 | -44 |  | 
8 | Cc1cccc(N2CCN(Sc3ccccc3)CC2)c1 |  |  | 16 | 
9 | COc1cccc(N2CCN(Sc3ccccc3)CC2)c1 | 35 |  |  | 
10 | COc1ccc(N2CCN(Sc3ccccc3)CC2)cc1 |  | 7 |  | 
11 | [O-][S+](c1ccccc1)N1CCN(c2ccccn2)CC1 (stereo not drawn) | 80 | 59 | 36 | 
12 | c1ccc(SN2CCN(c3ccccc3)CC2)cc1 |  | 90 | 16.5 | 
13 | FC(F)(F)c1cccc(N2CCN(Sc3ccccc3)CC2)c1 | 6 |  |  | 
14 | c1ccc(SN2CCC(c3ccccc3)CC2)cc1 | -9 |  |  | 
15 | c1ccc(CN2CCN(Sc3ccccc3)CC2)cc1 | 17 | 23 |  | 
16 | c1ccc(SN2CCN(c3ccccn3)CC2)cc1 | 40 | 65 |  | 
17 | [O-][S+](c1ccccc1)N1CCN(c2ccccc2)CC1 (stereo not drawn) | 83 | 42 | 22 | 
18 | Cc1ccc(C(=O)C2CCN(Sc3ccccc3)CC2)cc1 | 7 |  |  | 
19 | c1ccc(COC2(c3ccccc3)CCN(Sc3ccccc3)CC2)cc1 |  |  |  | 2
20 | O=S(=O)(c1ccccc1)N1CCN(c2ccccn2)CC1 | 5 |  |  | 
21 | O=S(=O)(c1ccccc1)N1CCN(c2ccccc2)CC1 | 26 | 33 |  | 
22 | N=C(N)NCCN1CCCCCCC1 [GUANETHIDINE] |  |  | 34 | 
